Assays:
[1] = test system: stéréotypies induites par l'amphétamine; test: Potentiation of amphetamine-induced stereotypies in the rat (test B); type: in vivo, rats SPRAGUE-DAWLEY; conditions: for B-Potentialisation des stéréotypies induites par l'amphétamine (score global sur 3 heures): global score over 3 h, printed as treated/control
Description: B - Potentialisation des stéréotypies induites par l'amphétamine
Ce test est effectué sur des rats SPRAGUE-DAWLEY de souche OFA, provenant de l'élevage IFFA CREDO et d'un poids moyen de 150 + 10 g.
Le protocole mis en oeuvre est celui préconisé par SIMON et CHERMAT [J. Pharmacol. (Paris) 3 (2) 235-238 (1972)]%. Le produit étudié (ou le véhicule seul pour le lot témoin) est administré par voie intrapéritonéale à raison de 5 mg.kg^-1.
Les résultats expriment le score global sur 3 heures.

[2] = Estimated oral LD50 in the mouse; conditions: in vivo, estimate, read-out: Evaluation DL 50
From the text: Dans ce tableau, on indique en outre une estimation de la DL 50 des composés par voie orale chez la souris.

[3] = test system: comportement " muricide " chez le rat LONG-EVANS; test: Antagonism of muricide behaviour in the LONG-EVANS rat (test C); type: in vivo; conditions: 5 mg.kg^-1 i.p., 60 min before the mouse is presented; percent decrease versus control group
Description: C - Antagonisme du comportement " muricide " chez le rat LONG-EVANS
Les animaux utilisés sont des rats de sexe mâle LONG-EVANS de souche pie-noire, en provenance de l'élevage IFFA CREDO, dont la période d'isolement dans des cages individuelles est supérieure à 6 mois. L'administration des composés (ou du véhicule pour les animaux de groupe de contrôle) est effectuée par voie intrapéritonéale à raison de 5 mg.kg ^1, 60 minutes avant la mise en présence d'une souris avec les rats isolés (n ≥ 8 ) .
Le.comportement classiquement décrit comme " muricide " /VALZELLI L. - Actualités Pharmacologiques, 24, 133-152, (1971)] est positif si le rat tue la souris en un temps inférieur ou égal à 3 minutes.
Les résultats sont exprimés en pourcentage de diminution par rapport à celui du groupe des animaux de contrôle.

[4] = test system: ptosis réserpinique chez la souris; test: Antagonism of reserpine-induced ptosis in the mouse (test A); type: in vivo; conditions: 60 min before reserpine i.p., ptosis score (RUBIN) 3 h after reserpine, pair of scores given
Description: L'activité psychopharmacologique et spécialement l'activité antidépressive des composés de formule I (dans lesquels R représente l'hydrogène ou le radical méthyle) est illustrée par le résultat des tests suivants : • A - Antagonisme du ptosis réserpinique chez la souris Le produit étudié (ou le.véhicule seul - gomme arabique et eau 1/1 - pour le lot témoin) est administré par intubation oesophagienne à des souris de sexe mâle, de souche OF1 IFFA CREDO de poids moyen 22 + 1 g, puis 60 minutes après traitement, tous les animaux reçoivent par voie intrapéritonéale 1 mg.kg de Réserpine base.
Le composé de l'exemple 1 et la quipazine prise comme référence, ont été administrés à raison de 40 mg.kg^-1 et le composé de l'exemple 2 à raison de 10 mg.kg^-1.
L'appréciation du ptosis (oeil gauche) est donnée selon la cotation de RUBIN et Coll. [J. Pharmacol. Exp. Ther. 120, 125-136 (195717 3 heures après l'administration de Réserpine.

[5] = 5 mg.kg^-1 i.p., percent increase of global score over control
[6] = 40 mg.kg^-1 oral (oesophageal intubation)

Question: For `Cc1cc2occc2c(N2CCNCC2)n1` [EXEMPLE 1, 6-methyl-4-(l-piperazinyl)-furo [3,2-c] pyridine], which “B-Potentialisation des stéréotypies induites par l'amphétamine (score global sur 3 heures)” value ([1]; 5 mg.kg^-1 i.p.) is on record?
Answer: The value was 118/95.

Question: And the “B-Potentialisation des stéréotypies induites par l'amphétamine” value [1, 5]?
Answer: Its value is 24,2%.

Question: And the LD50 [2]?
Answer: The LD50 was 250 mg/kg.

Question: And the “C-Antagonisme du comportement muricide” value [3]?
Answer: Its value is 90%.

Question: And the “A-Activité anti-réserpinique vis-à-vis du ptosis” value [4, 6]?
Answer: The value was 13 / 23.

Question: With `c1cc2occc2c(N2CCNCC2)n1` [EXEMPLE 2, 4-(l-piperazinyl)-furo [3,2-c] pyridine] as the molecule, how does the “B-Potentialisation des stéréotypies induites par l'amphétamine (score global sur 3 heures)” value ([1]; 5 mg.kg^-1 i.p.) read?
Answer: Its value is 129/114.

Question: What about the “B-Potentialisation des stéréotypies induites par l'amphétamine” value [1, 5] of the same molecule?
Answer: The value was 13,2%.

Question: What about the LD50 [2] of the same molecule?
Answer: The LD50 was 200 mg/kg.

Question: And the “C-Antagonisme du comportement muricide” value [3]?
Answer: The value was 74%.

Question: And the “A-Activité anti-réserpinique vis-à-vis du ptosis” value ([4]; 10 mg.kg^-1 oral (oesophageal intubation))?
Answer: The value was 15 / 22.

Question: Which results are given for `c1ccc2nc(N3CCNCC3)ccc2c1` [QUIPAZINE, quipazine, reference compound]?
Answer: B-Potentialisation des stéréotypies induites par l'amphétamine ([1]; even at 20 I P): Inactif même à 20 I P; LD50 [2]: 233 to 376 mg/kg; C-Antagonisme du comportement muricide [3]: 64,7%; A-Activité anti-réserpinique vis-à-vis du ptosis [4, 6]: 14 / 23
